Assays:
[1] = tested on: STING pathway cytokine hIFN-β in human THP-1 cells; assay: ELISA of STING pathway cytokine hIFN-β expression in human THP-1 cells; format: cell-based; conditions: for EC50: hIFN-β expression; for EC50 / Emax: 8 hours, ELISA; for Emax: highest expression of hIFN-β; for agonistic effect on the expression of hIFN-β: result in words
Text: In this experiment, the expression of STING signal pathway cytokine hIFN-β was detected in THP1 cells (Nanjing Cobioer) by the ELISA method, so as to evaluate the agonistic effect of the compounds to be tested on the expression of STING pathway cytokine hIFN-β at the cellular level.
THP1 cells (Nanjing Cobioer) in the logarithmic phase were centrifuged, and resuspended in a cell culture solution to a density of 8×10^6 cells/ml. The cell suspension was inoculated into a 24-well cell culture plate (Corning) at 250 μL/well.
The mother liquor of the compound to be tested was diluted with a cell culture solution to obtain a 2× working concentration diluted solution (control compounds 1 and 2 were diluted at a 2-fold gradient: 200, 100, 50, 25, 12.5, 6.25, 3.125, 1.5625 and 0 μM; and compounds 4, 6, and 8 were diluted at a 3-fold gradient: 200, 66.67, 22.22, 7.41, 2.47, 0.82, 0.27, 0.091 and 0 μM). The 2× working concentration diluted solution of the compound was added into 24-well plate (250 μl of the culture solution containing 2% DMSO was added into the negative control well) at 250 μL/well. The culture plate was placed in a cell culture incubator, and incubated for 8 hours. After the cell incubation, the supernatant was collected by centrifugation at 300 g×5 min, and the hIFN-β content (pg/ml) in the cell culture supernatant was detected according to the operating instructions of the VeriKine Human […] ELISA kit from PBL (obtained by conversion of the […] absorbance-hIFN-β standard concentration standard curve and the OD450 nm absorbance value read by the microplate reader). […] was calculated through log(agonist) vs. response—Variable slope fitting by the Graphpad Prism software, and the experimental results are shown in Table 2.
In the table, EC50 refers to the concentration of a compound when the expression of hIFN-β generated by stimulation of the compound reaches half of Emax and Emax refers to the highest expression of hIFN-β generated by stimulation of the compound.

[2] = tested on: STING pathway cytokine mIFN-β in mouse Raw264.7 cells; assay: ELISA of STING pathway cytokine mIFN-β expression in mouse Raw264.7 cells; format: cell-based; conditions: for Emax: highest expression of mIFN-β; for Emax / EC50: 6 h, ELISA; for EC50: mIFN-β expression; for agonistic effect on the expression of mIFN-β: result in words
Text: In this experiment, the expression of STING signal pathway cytokine mIFN-β was detected in Raw264.7 cells (Nanjing Cobioer) by the ELISA method, so as to evaluate the agonistic effect of the compound to be tested on the expression of STING pathway cytokine mIFN-β at the cellular level.
Raw264.7 cells (Nanjing Cobioer) in the logarithmic phase were centrifuged, and resuspended in a cell culture solution to a density of 1.6×10^6 cells/ml. The cell suspension was inoculated into a 24-well cell culture plate (Corning) at 250 μL/well. The mother liquor of the compound to be tested was gradiently diluted with a cell culture solution to obtain a 2× working concentration diluted solution (control compound 1 was diluted at a 3-fold gradient: 200, 66.67, 22.22, 7.41, 2.47, 0.82, 0.27 and 0 μM; control compound 2 was diluted at a 2-fold gradient: 200, 100, 50, 25, 12.5, 6.25, 3.125 and 0 μM; and compounds 4, 6 and 8 were diluted at a 4-fold gradient: 200, 50, 12.5, 3.13, 0.78, 0.20, 0.049 and 0 μM). The 2× working concentration diluted solution of the compound was added into a 24-well plate (250 μl of the culture solution containing 2% DMSO was added into the negative control well) at 250 μL/well. The culture plate was then placed in a cell incubator, and incubated for 6 h. After the cell incubation, the supernatant was collected by centrifugation at 300 g×5 min, and the mIFN-β content (pg/ml) in the cell culture supernatant was detected according to the operating instructions of the VeriKinem Mouse IFN Beta ELISA Kit from PBL (obtained by conversion of the OD450 nm absorbance-mIFN-β standard concentration standard curve and the OD450 nm absorbance value read by the microplate reader). EC50 was calculated through log(agonist) vs. response—Variable slope fitting by the Graphpad Prism software, and the experimental results are shown in Table 3.
In the table, EC50 refers to the concentration of a compound when the expression of mIFN-β generated by stimulation of the compound reaches half of Emax; and Emax refers to the highest expression of mIFN-β generated by stimulation of the compound.

hSTING protein = biological target: T1, hSTING protein (Homo sapiens, UniProt Q86WV6); assay: Human STING binding kit (HTRF) competitive binding assay; conditions: for Ki: calculated as Ki=1/2*IC50 per kit instructions; for IC50: competition with d2-STING-ligand for 6×His-hSTING, HTRF, 3 h at 25° C.; for binding affinity to the hSTING protein: result in words
T1 construct: purchased Cisbio
T1 sequence (Q86WV6 whole entry H232R): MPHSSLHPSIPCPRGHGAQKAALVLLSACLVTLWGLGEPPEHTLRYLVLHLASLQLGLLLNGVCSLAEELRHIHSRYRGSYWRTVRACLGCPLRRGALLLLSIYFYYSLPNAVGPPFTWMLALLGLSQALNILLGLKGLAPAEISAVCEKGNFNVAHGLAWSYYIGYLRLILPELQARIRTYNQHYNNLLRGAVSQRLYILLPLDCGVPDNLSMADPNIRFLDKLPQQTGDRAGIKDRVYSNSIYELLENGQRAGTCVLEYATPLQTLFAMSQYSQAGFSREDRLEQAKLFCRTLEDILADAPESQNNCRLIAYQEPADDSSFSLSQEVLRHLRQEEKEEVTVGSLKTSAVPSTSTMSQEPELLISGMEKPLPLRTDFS
Text: In this experiment, the capability of the compound and the specific ligand (d2-STING-ligand) in a Human STING binding kit from Cisbio for competitively binding to the 6×His-hSTING protein was detected using the Human STING binding kit (HTRF method), so as to evaluate the binding affinity between the compound to be tested and the hSTING protein.
The compound was gradiently diluted with a dilution buffer in the Human STING binding kit (the diluent buffer reagent) to obtain a 4× working concentration diluted solution. […] The 6×His-hSTING protein (50× in the mother liquor) was diluted to 1× with the detection buffer in the Human STING binding kit (the detection buffer reagent). 5 μl of the diluted solution was added into the corresponding wells of a 384-well plate, and the well with no protein and no compound was set as a negative control well (min), while the well with the protein and no compound was set as a positive control well (max). The d2-STING-ligand and Tb^3+-anti-6×His-antibody (both 50× in the mother liquor) were diluted to 1× with the detection buffer in the Human STING binding kit (the detection buffer reagent), and mixed uniformly at a ratio of 1:1. 10 μl of the mixed solution was added to the corresponding wells of a 384-well plate. The plate was sealed and incubated at room temperature (25° C.) for 3 h. A BMG microplate reader was used to read HTRF, and the ratio was calculated according to the following formula: Ratio=signal665nm/signal620nm×10000. […] IC50 was calculated through log(inhibitor) vs. response—Variable slope fitting by the Graphpad Prism software.

SMILES	EC50 [1] [nM]	Emax [1] [pg/mL]	agonistic effect on the expression of hIFN-β [1]	Emax [2] [pg/mL]	EC50 [2] [nM]	agonistic effect on the expression of mIFN-β [2]	Ki (hSTING protein) [nM]	IC50 (hSTING protein) [nM]	binding affinity to the hSTING protein (hSTING protein)
COc1cc2sc(C(=O)N(C)CCC(=O)O)cc2cc1OCCCOc1cc2sc(C(=O)CCC(=O)O)cc2cc1OC [Compound 4, 4-(6-(3-((2-((2-carboxyethyl)(methyl)carbamoyl)-6-methoxybenzo[b]thiophen-5-yl)oxy)propoxy)-5-methoxybenzo[b]thiophen-2-yl)-4-oxobutanoic acid]	5570	908.0	strong agonistic effect	1082.21	3600	strong agonistic effect	16.1	32.2	strong binding affinity
COc1cc2sc(C(=O)CCC(=O)O)cc2cc1OCCCOc1cc2sc(C(=O)N(C)CCC(=O)O)cc2cc1OC [Compound 6, 4-(5-(3-((2-((2-carboxyethyl)(methyl)carbamoyl)-5-methoxybenzo[b]thiophen-6-yl)oxy)propoxy)-6-methoxybenzo[b]thiophen-2-yl)-4-oxobutanoic acid]	1820	829.6	strong agonistic effect	1012.51	3800	strong agonistic effect	4.55	9.1	strong binding affinity
COc1cc2sc(C(=O)CCC(=O)O)cc2cc1OCCCOc1cc2cc(C(=O)N(C)CCC(=O)O)sc2cc1OC [Compound 8, 4-(5-(3-((2-((2-carboxyethyl)(methyl)carbamoyl)-6-methoxybenzo[b]thiophen-5-yl)oxy)propoxy)-6-methoxybenzo[b]thiophen-2-yl)-4-oxobutanoic Acid]	1250	917.1	strong agonistic effect	1176.75	560	strong agonistic effect	0.069	0.139	strong binding affinity

Source: patent publication US12269816B2, “Benzothiophene compound, preparation method therefor and use thereof” (SICHUAN KELUN-BIOTECH BIOPHARMACEUTICAL CO., LTD., priority 2019, dated 2025)
